Experimental data published in the supplement of paper PMC10307832.

Legend:
Experiment in all cases: relative viability (nuclei count vs DMSO), 5 days (fraction); higher = more cells survive
[1] = compound: Cc1cc([C@@H](C)Nc2ccccc2C(=O)O)c2nc(N3CCOCC3)cc(=O)n2c1 [AZD6482] + CCNC(=O)c1noc(-c2cc(C(C)C)c(O)cc2O)c1-c1ccc(CN2CCOCC2)cc1 [Luminespib] (partner 0.01 µM)
Method in brief: (§1)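 Lung cancer cell lines were pin-tool dosed in 1536-well plates on the day after seeding, with either a lone drug or a fixed anchor-drug dose plus five library-drug doses (not always all listed) in √10 steps. Nuclei were counted on 4× images after 5 days. Relative viability is the ratio of treated-well to vehicle-well nuclei counts, with each value a median of duplicate plates.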

[2] = compound: Cc1cc([C@@H](C)Nc2ccccc2C(=O)O)c2nc(N3CCOCC3)cc(=O)n2c1 [AZD6482] + Cc1nc(NC(=O)N2CCC[C@H]2C(N)=O)sc1-c1ccnc(C(C)(C)C(F)(F)F)c1 [Alpelisib] (partner 2 µM)
Method in brief: as §1

[3] = compound: Cc1cc([C@@H](C)Nc2ccccc2C(=O)O)c2nc(N3CCOCC3)cc(=O)n2c1 [AZD6482] + Nc1ncn([C@H]2C[C@H](O)[C@@H](CO)O2)c(=O)n1 [Decitabine] (partner 2 µM)
Method in brief: as §1

[4] = compound: COc1cc2nc(N3CCCN(C)CC3)nc(NC3CCN(Cc4ccccc4)CC3)c2cc1OC + Cc1nc(Nc2ncc(C(=O)Nc3c(C)cccc3Cl)s2)cc(N2CCN(CCO)CC2)n1 [Dasatinib] (partner 0.075 µM)
Method in brief: as §1

UMC-11
relative viability ([1]; first compound 0.08 µM): 0.986
relative viability ([1]; first compound 0.253 µM): 0.994
relative viability ([1]; first compound 0.8 µM): 0.929
relative viability ([1]; first compound 2.53 µM): 0.869
relative viability ([1]; first compound 8 µM): 1.26
relative viability ([2]; first compound 0.08 µM): 1.01
relative viability ([2]; first compound 0.253 µM): 0.938
relative viability ([2]; first compound 0.8 µM): 0.984
relative viability ([2]; first compound 2.53 µM): 0.693
relative viability ([2]; first compound 8 µM): 0.965
relative viability ([3]; first compound 0.08 µM): 0.623
relative viability ([3]; first compound 0.253 µM): 0.584
relative viability ([3]; first compound 0.8 µM): 0.606
relative viability ([3]; first compound 8 µM): 0.613
relative viability ([4]; first compound 0.2 µM): 0.464
relative viability ([4]; first compound 0.6325 µM): 0.435
relative viability ([4]; first compound 2 µM): 0.468
relative viability ([4]; first compound 6.325 µM): 0.286
